Results on two substances are retold here after patent publication US11857601B2, “Pharmaceutical composition for cancer treatment comprising fusion protein including IL-2 protein and CD80 protein and anticancer drug” (GI INNOVATION, INC., priority 2020, dated 2024).

In one assay the test system is TC1 cells. Kind of assay: mGI-101, Cisplatin, Pemetrexed and anti-PD-1 antibody, 1st line and maintenance therapy, TC1 tumor model. Type of assay: in vivo, C57BL/6 mice. The conditions noted are these: mGI-101 3 mg/kg i.p. QW; compared with anticancer chemotherapeutic agent and anti-PD-1 antibody. On the procedure: Mouse-derived lung cancer cell line, TC1, was purchased from ATCC (USA) and used for the test.
TC1 cells were cultured in RPMI1640 medium (Gibco) containing 10% FBS (Gibco) and 1% antibiotic/antifungal agent (Gibco). The cultured cells were harvested using trypsin (Gibco), and then 1×10^6 of TC1 cells were subcutaneously injected into the right flank of C57BL/6 female mice (7-week-old) in order to establish an allotransplanted tumor model.
The mice were randomly assigned based on tumor volume (˜100 mm^3), each group including 13 to 19 mice. The tumor grafts were identified about day 2 after cell inoculation.
The test was divided into the 1st line treatment and the anticancer maintenance therapy. […]
Clinical symptoms such as a disease and a behavioral change were observed once a day during the test period, and deceased animals were identified, and the mice were sacrificed when the tumor size reached a size of 4,000 mm^3. The size of the TC1 solid cancer was measured using a tumor 3D scanner (TM900, Peria, Belgium). […] The anti-tumor efficacy was evaluated as compared with the mouse IgG4 control. […]

The next assay has as its system EMT6 cells. Put plainly: mGI-101 and Paclitaxel in EMT6 allotransplanted tumor model. Type of assay: in vivo, BALB/c mice. The protocol: EMT6 cells were purchased from ATCC (USA) and cultured in Waymouth MB 751/1 medium (WELGENE) containing 10% FBS (Gibco) and 1% antibiotic/antifungal agent (Gibco). The cultured cells were harvested using trypsin (Gibco), and then a high-concentration cell suspension (2×10^6 cells/0.4 mL) for 10 mice was prepare with PBS and stored on ice until injected into mice. In order to establish an allotransplanted tumor model, the skin was incised slightly away from the 4th nipple position from the upper right of the ventral region of BALB/c female mice (7-week-old), and the location of mammary fat pad at the incised site was identified, and then EMT6 cell line prepared inside the mammary fat pad was injected at 2×10^5 cells/40 uL/head.
A certain period of time after cell inoculation of the tumor grafts of the mice, the tumor volume was measured for animals with no abnormalities in the health condition of the animals, and the subjects were selected so that the average of each group reached less than 70-100 mm^3, and the selected animals were assigned as evenly as possible based on tumor volume and body weight, each group including 10 animals. As shown in Table 24 and FIG. 106, the test groups were configured and the test substances were administered.
Clinical symptoms such as a disease and a behavioral change were observed once a day during the test period, and deceased animals were identified, and the mice were sacrificed when the tumor size reached a size of 4,000 mm^3.
The tumor volume before administration of each subject was set as the value measured at the time of grouping, and the anti-tumor efficacy was evaluated as compared with the vehicle control.
All statistical calculations were performed using Prism 8.0 (Graph Pad Software Inc, USA). The comparison of tumor volume measurements was made through two-way analysis of variance followed by Tukey's multiple comparison test. A p value of less than 0.05 was considered significant.

Another assay deals with LL/2 cell line. Put plainly: mGI-101 and Axitinib in LL/2 allotransplanted tumor model. The following applies: mGI-101 3 mg/kg IP, Axitinib 30 mg/kg PO. The assay is classed as in vivo, C57BL/6 mice.
Assay [1] deals with T1, CTLA-4 expressed on effector T cells (Homo sapiens, UniProt P16410).
T1 construct: host or cells: CTLA-4 effector cells of the kit, co-cultured with aAPC/Raji cells
Kind of assay: CTLA-4 blockade bioassay. The assay is classed as cell-based. The following applies: CTLA-4 effector cells + aAPC/Raji cells, 16 hours. The protocol: An experiment was performed using a CTLA-4 blockade bioassay kit (Promega cat No. JA4005). The experiment is briefly described as follows. CTLA-4 effector cells kept in liquid nitrogen were thawed in a 37° C. constant temperature water bath for 3 minutes, and 0.8 ml of CTLA-4 effector cells were mixed well with 3.2 ml of pre-warmed assay buffer (90% RPMI+10% fetal bovine serum). Then, the mixture was added to a 96-well white cell culture plate (SPL, cat No. 30196) at 25 μl per well. Then, 25 μl of GI101 at various concentrations was added thereto. For a negative control, 25 μl of assay buffer was added thereto. Then, the 96-well white cell culture plate was covered and placed at room temperature until aAPC/Raji cells were prepared.
aAPC/Raji cells kept in liquid nitrogen were thawed in a 37° C. constant temperature water bath for 3 minutes, and 0.8 ml of aAPC/Raji cells were mixed well with 3.2 ml of pre-warmed assay buffer. Then, 25 μl of the mixture was added to the plate at per well, and reaction was allowed to proceed in a 5% CO2 incubator at 37° C. for 16 hours. […] Reaction was allowed to proceed at room temperature for 10 minutes, and then luminescence was measured with Cytation 3 (BioTek instruments, Winooski, VT, USA). […]

T1 sequence (P16410 36-223): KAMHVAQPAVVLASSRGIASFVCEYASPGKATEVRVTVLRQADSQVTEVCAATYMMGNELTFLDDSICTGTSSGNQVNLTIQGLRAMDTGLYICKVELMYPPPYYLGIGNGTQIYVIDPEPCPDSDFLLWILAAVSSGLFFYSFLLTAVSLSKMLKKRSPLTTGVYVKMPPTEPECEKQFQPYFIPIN
Description for LL/2 cell line: Mouse-derived colorectal cancer cells, CT26 (Mus musculus, Colon adenocarcinoma), and mouse-derived lung cancer cells, LL/2 (Mus musculus, Lung adenocarcinoma), were purchased from ATCC (USA) and used for the test. The cells to be used for the test were thawed, mixed with RPMI1640 (A1049101, Thermofisher scientific) medium containing 10% FBS (fetal bovine serum, Gibco, 10082-147), and then placed in a cell culture flask, and cultured in a 37° C., 5% CO2 incubator. The cells were washed with PBS, and then the cells were isolated using Trypsin-EDTA (15090, Gibco), and centrifugation (125×g, 5 minutes) was performed to discard the supernatant, and then the cells were suspended in a new medium to obtain the cell suspension. The viability of the cells was identified, and then a cell line was prepared by diluting in a medium to a concentration of 5.0×10^6 cells/mL.
6-week-old male BALB/cAnHsd mice or C57BL/6NHsd mice were purchased and used for the test. After the end of the acclimation period of 7 days, the cells were transplanted into healthy animals. The cell suspension (5×10^6 cells/mL) was dispensed, and filled into a disposable syringe, and transplantation of the suspension was performed by subcutaneous administration at 0.1 mL/head in the right dorsal region of the animals. General symptoms were observed once a day during the engraftment and growth period after cell line transplantation.
After the inoculation of the cell line was performed, when the tumor size at the site to which the cell line was transplanted reached about 50 mm^3, the tumor size of each group was distributed as uniformly as possible according to the ranked tumor size.
The test substance was administered orally or intraperitoneally, and administered for 3 weeks depending on the composition of the test group. In the case of oral administration, the animals were fixed with the cervical spine skin fixation method, and administered directly into the stomach using a sonde for oral administration. In the case of intraperitoneal administration, the animals were fixed with the cervical spine skin fixation method, and administered intraperitoneally using a syringe equipped with a 26 gauge needle. The administration rate was not to exceed 200 μl/min.
Syngeneic model was prepared by subcutaneously transplanting the LL/2 cell line into C57BL/6 mice, and then the test substance was administered to evaluate the anticancer effect.

Regarding “mGI101: fusion protein: mouse CD80, Ig hinge, Fc domain, linker, IL-2 variant (2M) (R38A, F42A); SEQ ID NO: 15”, the “anticancer effect, anticancer maintenance therapy” value in the assay with TC1 cells is “as much anticancer effect as the group having received an anticancer chemotherapeutic agent and an anti-PD-1 antibody”. The “number of mice with tumor growth inhibition rate of 30% or more” value in the assay with EMT6 cells (EMT6, 10 animals per group) was 6 mice. The “number of mice with tumor growth inhibition rate of 50% or more” value with EMT6 cells (EMT6, 10 animals per group) worked out at 5 mice. Also, the “number of mice with tumor growth inhibition rate of 80% or more” value in the assay with EMT6 cells (EMT6, 10 animals per group) is on record as 5 mice. For the same substance, the “tumor size level vs control” value in the assay with EMT6 cells (day 11, mGI-101 3 mg/kg i.v. QW, Paclitaxel 10 mg/kg i.p. 7 consecutive days) was “statistically significantly lower”. Also, the “mice with complete remission” value in the assay with EMT6 cells (day 13, 10 animals per group) amounted to 2 mice. The “tumor size vs control” value in the assay on EMT6 cells (day 13, mGI-101 3 mg/kg i.v. QW, Paclitaxel 10 mg/kg i.p. 7 consecutive days) is given as “statistically significantly lower”. Besides, the Tumor size in the assay on LL/2 cell line (Day 0, mean ± SD) is 55.70 ± 11.48 mm^3; with LL/2 cell line (Day 2, mean ± SD), 99.18 ± 19.96 mm^3; in the assay with LL/2 cell line (Day 5, mean ± SD), 179.58 ± 39.71 mm^3; with LL/2 cell line (Day 7, mean ± SD), 409.37 ± 72.98 mm^3; with LL/2 cell line (Day 9, mean ± SD), 749.00 ± 174.47 mm^3; in the assay on LL/2 cell line (Day 12, mean ± SD), 1066.72 ± 307.18 mm^3. For the same substance, the Tumor size in the assay with LL/2 cell line (Day 14, mean ± SD) stood at 1608.00 ± 572.50 mm^3; in the assay on LL/2 cell line (Day 16, mean ± SD) it was 2200.03 ± 850.12 mm^3; in the assay with LL/2 cell line (Day 19, mean ± SD) it was 3223.87 ± 1191.11 mm^3; with LL/2 cell line (Day 21, mean ± SD) it was 5431.08 ± 1673.60 mm^3. The Tumor growth inhibition is on record as −7.12 ± 34.31% with LL/2 cell line (Day 2, mean ± SD); 1.83 ± 27.19% in the assay on LL/2 cell line (Day 5, mean ± SD); 12.67 ± 19.15% in the assay on LL/2 cell line (Day 7, mean ± SD); 5.78 ± 24.08% with LL/2 cell line (Day 9, mean ± SD); 6.89 ± 28.47% in the assay on LL/2 cell line (Day 12, mean ± SD); 1.85 ± 36.39% in the assay with LL/2 cell line (Day 14, mean ± SD). Also, the Tumor growth inhibition with LL/2 cell line (Day 16, mean ± SD) is 0.91 ± 39.37%; in the assay with LL/2 cell line (Day 19, mean ± SD), −5.99 ± 39.91%; in the assay on LL/2 cell line (Day 21, mean ± SD) it was −2.78 ± 32.04%.

With “GI101: fusion protein: human CD80 fragment, Ig hinge, Fc domain, linker, IL-2 variant (2M) (R38A, F42A); SEQ ID NO: 9”, the “function of T cells (luminescence)” value in assay [1] is recorded as “activats the function of T cells rather than inhibiting the same”.
